Experimental findings from PubChem BioAssay (NCI) are described below.

Among the test systems are DU-145 prostate; HS 578T breast; HT29 colon; MCF7 breast; NCI-H23 lung; NCI-H460 lung; OVCAR-4 ovarian; OVCAR-8 ovarian; SNB-19 CNS; SR leukemia; UACC-257 melanoma.
Assay in all cases: DTP human tumour cell line panel, 48 h

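Results reflect a 48-hour exposure of cells in 96-well plates to compound at five concentrations. Definition used: TGI = concentration required for complete inhibition of growth.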

One may read the TGI as the concentration giving total growth inhibition. Low readings indicate more potent growth arrest, high ones less potent growth arrest. `NC(=O)c1nnc2cc(F)ccc2c1N`: the TGI in the test on DU-145 prostate, with HS 578T breast, in the test with HT29 colon, in the test on MCF7 breast, in the test with NCI-H23 lung and in the test with NCI-H460 lung was above 100 µM in each case. The TGI in the test on OVCAR-4 ovarian, in the test on OVCAR-8 ovarian, in the test on SNB-19 CNS, in the test with SR leukemia and in the test with UACC-257 melanoma was above 100 µM each time.
For `O=[N+]([O-])/C(C(Cl)=C(Cl)Cl)=C1\NCCO1`, the concentration for total growth inhibition (TGI) is above 100 µM with DU-145 prostate; 90.5 µM in the test on HS 578T breast; above 100 µM in the test on HT29 colon; above 100 µM in the test on MCF7 breast; above 100 µM in the test on NCI-H23 lung; above 100 µM with NCI-H460 lung. Also, the TGI in the test with OVCAR-4 ovarian, in the test with OVCAR-8 ovarian, in the test on SNB-19 CNS, in the test on SR leukemia and in the test with UACC-257 melanoma was above 100 µM each time.
Take `CC1(C)N=C(C(N)=O)c2ncn(CCO)c2N1`: the TGI in the test with DU-145 prostate, in the test with HS 578T breast, with HT29 colon, with MCF7 breast, in the test with NCI-H23 lung and with NCI-H460 lung was above 100 µM throughout. Moreover, the TGI in the test with OVCAR-4 ovarian, in the test on OVCAR-8 ovarian, in the test on SNB-19 CNS, with SR leukemia and with UACC-257 melanoma was above 100 µM each time.
On to `COc1ccc(S(=O)(=O)O)cc1-n1nc(C(=O)Nc2ccccc2)n[n+]1-c1cc(S(=O)(=O)[O-])ccc1OC`, for which the TGI with DU-145 prostate, in the test on HS 578T breast, in the test with HT29 colon, with MCF7 breast, in the test on NCI-H23 lung and in the test with NCI-H460 lung was above 100 µM in each case. Besides, the TGI in the test on OVCAR-4 ovarian, with SNB-19 CNS and with SR leukemia was above 100 µM each time.
With `Clc1nc(Cl)c(Cl)c(Cl)n1`, the TGI with DU-145 prostate amounted to 31.7 µM; in the test with HS 578T breast, 53.7 µM; in the test with HT29 colon, 52.6 µM; in the test with MCF7 breast, 37.9 µM; in the test with NCI-H23 lung, 40.3 µM; in the test with NCI-H460 lung, 51.9 µM. In addition, the TGI turned out to be 46.8 µM in the test on OVCAR-4 ovarian; 80.2 µM with OVCAR-8 ovarian; 38.8 µM with SNB-19 CNS; 14.6 µM with SR leukemia; 31.1 µM in the test with UACC-257 melanoma.
For the molecule `O=C1C(F)=CC(COC(c2ccccc2)(c2ccccc2)c2ccccc2)OC1n1cc(F)c(=O)[nH]c1=O` (configuration not stated), the TGI in the test on DU-145 prostate was above 34.2 µM; in the test on HS 578T breast, above 45 µM; with HT29 colon, 1.59 µM; with MCF7 breast, 4.96 µM; with NCI-H23 lung, 3.91 µM; in the test on NCI-H460 lung, 7.68 µM. Moreover, the TGI in the test with OVCAR-4 ovarian was 14.4 µM; in the test on OVCAR-8 ovarian it was 7 µM; in the test on SNB-19 CNS, 12.8 µM; in the test with SR leukemia it was above 100 µM; in the test with UACC-257 melanoma it was 4.72 µM.
With `COC1=C(N=[N+]=[N-])C(=O)c2ncccc2C1=O`, the TGI in the test on DU-145 prostate was found to be 35.1 µM; in the test on HS 578T breast, 48.6 µM; in the test on HT29 colon it was 33 µM; in the test with MCF7 breast it was 3.41 µM; in the test with NCI-H23 lung, 16.1 µM; with NCI-H460 lung, 32.6 µM. The TGI in the test with OVCAR-4 ovarian was 5.7 µM; in the test on OVCAR-8 ovarian it was 7.56 µM; in the test with SNB-19 CNS, 30.9 µM; with SR leukemia, above 100 µM; in the test on UACC-257 melanoma, 13 µM.
Consider `CC(C)SC(C)(NC(=O)C1C(C)(C)CCC1(C)C)C(=O)O` (configuration not stated), for which the TGI with DU-145 prostate, in the test on HS 578T breast, with MCF7 breast, with NCI-H23 lung, in the test on NCI-H460 lung and in the test with SNB-19 CNS was above 100 µM in each case. In addition, in the test on SR leukemia, the TGI was above 100 µM.
In the case of `O=C(NCCC(F)(F)C(F)(F)C(F)(F)C(F)(F)F)NC1OC(CO)C(O)C(O)C1O` (configuration not stated), the TGI in the test with DU-145 prostate, in the test on HS 578T breast, in the test with HT29 colon, with MCF7 breast, with NCI-H23 lung and in the test on NCI-H460 lung was above 100 µM each time. The TGI in the test with OVCAR-4 ovarian, with SNB-19 CNS, in the test with SR leukemia and in the test with UACC-257 melanoma was above 100 µM each time.
`COc1cc2c(c(OC)c1OC)-c1ccc(SC)c(=O)cc1[C@@H](OC(C)=O)CC2`: the TGI in the test with DU-145 prostate is above 100 µM; in the test with HS 578T breast, above 100 µM; in the test with MCF7 breast it was above 100 µM; in the test with NCI-H23 lung it was 0.194 µM; with NCI-H460 lung, above 100 µM; in the test on OVCAR-4 ovarian, above 100 µM. The TGI with OVCAR-8 ovarian, in the test on SNB-19 CNS, in the test on SR leukemia and in the test with UACC-257 melanoma was above 100 µM in each case.
Take `N#Cc1c(SCc2ccccc2)nc(-c2ccccc2)[nH]c1=S`: the TGI in the test on DU-145 prostate is above 100 µM; in the test on HS 578T breast, 92 µM; with HT29 colon, 60.1 µM; in the test on MCF7 breast, 71 µM; in the test on NCI-H23 lung, 47.7 µM; in the test on NCI-H460 lung, 51.4 µM. Moreover, the TGI in the test on OVCAR-4 ovarian was above 100 µM; with OVCAR-8 ovarian it was 76.7 µM; with SNB-19 CNS, above 100 µM; in the test with UACC-257 melanoma, above 100 µM.
Regarding `CC(=O)NCCC1CN(C(=O)/C=C\C#C[Si](C)(C)C)c2ccccc21` (configuration not stated), the TGI in the test on DU-145 prostate was above 100 µM; in the test on HS 578T breast, above 100 µM; with HT29 colon, 58.9 µM; with MCF7 breast, above 100 µM; with NCI-H23 lung, 28.4 µM; with NCI-H460 lung it was above 100 µM. In addition, the TGI was 63.3 µM in the test on OVCAR-4 ovarian, above 100 µM in the test on OVCAR-8 ovarian, 93.7 µM with SNB-19 CNS and 9.27 µM in the test on UACC-257 melanoma.
With `NCCCn1c2ccccc2c2c3c(c4c(c21)CCC(O)CC4)C(=O)NC3=O` (configuration not stated), the TGI was 14.1 µM in the test on DU-145 prostate; 20.9 µM in the test on HS 578T breast; 4.99 µM in the test on HT29 colon; 3.58 µM in the test on MCF7 breast; 14.3 µM in the test on NCI-H23 lung; 14 µM with NCI-H460 lung. The TGI was found to be 5.44 µM with OVCAR-4 ovarian, 21.6 µM in the test with OVCAR-8 ovarian, 5.15 µM in the test with SR leukemia and 29.7 µM with UACC-257 melanoma.
For `Cc1cc(-c2[nH]c(C(=O)O)cc2I)on1`, the TGI in the test on DU-145 prostate, in the test on HS 578T breast, with HT29 colon, in the test with MCF7 breast, in the test with NCI-H23 lung and in the test with NCI-H460 lung was above 100 µM in each case. Besides, the TGI in the test on OVCAR-4 ovarian is above 100 µM; in the test on OVCAR-8 ovarian, 81.9 µM; in the test on SNB-19 CNS, above 100 µM; in the test on UACC-257 melanoma, above 100 µM.
Turning to `CN(C(=O)Cc1ccc(Cl)c(Cl)c1)[C@H]1CCCC[C@@H]1[N+]1(C)CCCC1`, the TGI with DU-145 prostate, in the test on HS 578T breast, in the test with HT29 colon, in the test with MCF7 breast, with NCI-H23 lung and in the test with OVCAR-4 ovarian was above 100 µM throughout. Further, the TGI in the test on OVCAR-8 ovarian, with SNB-19 CNS, in the test on SR leukemia and with UACC-257 melanoma was above 100 µM each time.
Regarding `C=CC1ON(Cc2ccccc2)CCc2cc(OC)c(OC)cc21` (configuration not stated), the TGI in the test on DU-145 prostate, in the test with HS 578T breast, with HT29 colon, in the test with MCF7 breast, in the test on NCI-H23 lung and in the test with NCI-H460 lung was above 100 µM throughout. The TGI with OVCAR-8 ovarian, in the test on SNB-19 CNS, with SR leukemia and with UACC-257 melanoma was above 100 µM in each case.
For `CN1C(=S)C(c2ccccc2)Sc2ccccc21` (configuration not stated), the TGI with DU-145 prostate, in the test on HS 578T breast, in the test with MCF7 breast, with NCI-H23 lung, in the test with NCI-H460 lung and with OVCAR-4 ovarian was above 100 µM each time. The TGI with OVCAR-8 ovarian, in the test on SNB-19 CNS, in the test with SR leukemia and in the test on UACC-257 melanoma was above 100 µM each time.
Consider `CCOC(=O)c1cc(C(=O)c2ccccc2)n2nc(-c3ccc(Cl)cc3)ccc12`, for which the TGI in the test on DU-145 prostate is 85.2 µM; with HS 578T breast it was 41.5 µM; with HT29 colon it was 64.2 µM; in the test with MCF7 breast, 53.2 µM; with NCI-H23 lung it was above 100 µM; in the test on NCI-H460 lung, 50.9 µM. The TGI was 37.2 µM in the test with OVCAR-4 ovarian, 34.8 µM in the test on SNB-19 CNS, above 100 µM in the test on SR leukemia and 97.1 µM in the test with UACC-257 melanoma.
Turning to `CCOc1cc(NC(C)=O)ccc1C(=O)NN1C(=O)C(Oc2ccccc2)C1c1ccccc1` (configuration not stated), the TGI in the test with DU-145 prostate, in the test on HS 578T breast, in the test on HT29 colon, in the test on MCF7 breast, in the test with NCI-H23 lung and with NCI-H460 lung was above 100 µM in each case. For the same molecule, the TGI was above 100 µM in the test on OVCAR-4 ovarian, above 100 µM in the test with OVCAR-8 ovarian, 23.7 µM in the test with SR leukemia and above 100 µM in the test with UACC-257 melanoma.
For the molecule `O=c1[nH]nc(-c2ccccc2)n1/N=C/c1c[nH]c2ccccc12`, the TGI in the test with DU-145 prostate, with HS 578T breast, with HT29 colon, in the test on MCF7 breast, with NCI-H23 lung and in the test with NCI-H460 lung was above 100 µM throughout. The TGI with OVCAR-4 ovarian, with OVCAR-8 ovarian, in the test on SNB-19 CNS and in the test with UACC-257 melanoma was above 100 µM in each case.
